Reference: publication PMC11696576, “Next generation thiazolyl ketone inhibitors of cytosolic phospholipase A2 α for targeted cancer therapy” (Nature Communications, 2025)
“And” between values parts separate entries of the source, which are not always exact repeats. Equal values may be shown once. Read-outs that look alike come from different tables or passages of the source.

System: panel of 66 cancer cell lines
Experiment: cancer cell line screen, proliferation assay (ATPlite, 72 h)
Type: cell-based, human
Conditions: for raw signal, dose-response (Figure S7a): rep1, rep2, listed as AVX420; for IC50: Homo sapiens
Excerpt: Targeting specific molecular vulnerabilities in cancer is considered a key approach to reducing the adverse effects of chemotherapy. However, the events that govern the susceptibility to suppression of the cPLA2α in cancer remain largely unexplored. We therefore took the approach of screening the antiproliferative activity of AVX420 in a panel of 66 cancer cell lines (hereafter referred to as the cancer cell line screen or CCLS) to allow us to investigate molecular and genetic vulnerabilities to the drug.
Screening of compound activities in 66 cancer cell lines was carried out at the Netherlands Translation Research Center. Briefly, proliferation assays were performed 72 h after compound addition using ATPlite 1step reagent (Perkin Elmer). IC50s calculated by non-linear regression analysis were used as a measure of compound activity for investigating associations with genetic factors. A complete description of the laboratory and data analysis methods are available in the Supplementary Information file (Supplemental Methods: Cancer Cell Line Screening).
Cancer cell line screening
Cell proliferation assays
All cell lines were from the American Type Culture Collection (ATCC) Manassas, Virginia (US) and maintained under ATCC-recommended protocols and within 9 pas- […]
DMSO at -80°C until one hour before use. Cells exposed within one hour after thaw-ing of the compound stocks. Final compound concentration range in the assay was 10 […]
cated by supplier. Compounds were dissolved in 100 % DMSO and stored at room temperature. Final concentration of the reference compounds in the assay was 3.16x10-5 M to 3.16x10-9 M. The final DMSO concentration during incubation was […]
Cell lines were plated in Advanced RPMI 1640 (Gibco, ref 12633-012) cell culture medium, containing 1% Glutamax solution (Gibco, ref 35050-038), 0.4% Pen Strep solution (Gibco, ref 15140-122) and bovine serum. The cPLA2α inhibitors were tested in 0.5% bovine serum (HyClone, ref SH30072.03) with the exception of769-P, A-204, BT-549, SR, T98G, which were tested in the presence of 1.0% serum and A-704 and LNCaP FGS, which were tested in the in the presence of 10% serum. Reference com-pounds were all tested in the presence of 10% bovine serum.
Cells were dispensed in a 384-well plate, at a concentration of 200 - 3200 cells per well, depending on the cell line, in 45 μL medium. Plated cells were incubated in a humidified atmosphere of 5% CO2 at 37 °C. After 24 hours, 5 μL of compound dilu-tion was added and plates were further incubated for another 72 hours. After 72 hours, 25 μL of ATPlite 1Step™ (PerkinElmer) solution was added to each well, and subse-quently shaken for 2 minutes. After 10 minutes of incubation in the dark, the lumines-cence was recorded on an Envision multimode reader (PerkinElmer).
Cell growth control. The cellular doubling times of all cell lines are calculated from the t = 0 hours and t = 72 hours growth signals of the untreated cells. If the doubling time is out of specification (0.5 – 2.0 times deviating from historic average) the assay […]
IC50s were calculated by non-linear regression using IDBS XLfit 5. The percentage growth after 72h (%-growth) was calculated as follows: 100% x (luminescence t = 72h / luminescence untreated,t=72h). This was fitted to the 10log compound concentration (conc) by a 4-parameter logistics curve: %-growth = bottom + (top – bottom) / (1+ 10(logIC50 – conc)*hill)), where hill is the Hill-coefficient, and bottom and top the asymptotic mini-mum and maximum cell growth that the compound allows in that assay.
All analysis were performed in the statistical software package R and visualized using GraphPad Prism version 10.0 .0

CCCCCCCOc1ccc(OCC(=O)c2nc(C(=O)OC)cs2)cc1 [GK420]
average panel 10logIC50 (10log of IC50 in nM, panel average): 4.17
pIC50 (769P, kidney): 4,561
pIC50 (786O, kidney): 4,867
pIC50 (A172, central_nervous_system): 4,692
pIC50 (A204, soft_tissue): 4,646
pIC50 (A375, skin): 4,764
pIC50 (A388, cervix): 4,776
pIC50 (A427, lung): 4,923
pIC50 (A498, kidney): 4,615
pIC50 (A549, lung): 4,624
pIC50 (ACHN, kidney): 4,799
pIC50 (AN3CA, endometrium): 4,941
pIC50 (AU565, breast): 4,836
pIC50 (AsPC1, pancreas): 4,597
pIC50 (BT20, breast): 4,474
pIC50 (BT549, breast): 4,818
pIC50 (BxPC3, pancreas): 4,715
pIC50 (CAL27, upper_aerodigestive_tract): 4,804
raw signal, dose-response (Figure S7a) (CCRF-CEM, Log10 M -4): 5160 and 4973
raw signal, dose-response (Figure S7a) (CCRF-CEM, Log10 M -4.5): 1680 and 1133
raw signal, dose-response (Figure S7a) (CCRF-CEM, Log10 M -6): 1223867 and 1721613
raw signal, dose-response (Figure S7a) (CCRF-CEM, Log10 M -6.5): 5260280 and 5359267
raw signal, dose-response (Figure S7a) (CCRF-CEM, Log10 M -7): 5505373 and 6147053
raw signal, dose-response (Figure S7a) (CCRF-CEM, Log10 M -7.5): 5656213 and 5825533
raw signal, dose-response (Figure S7a) (CCRF-CEM, Log10 M -8): 5419560 and 5847920
pIC50 (COLO829, unknown): 4,761
pIC50 (Daoy, central_nervous_system): 4,867
pIC50 (DoTc24510, cervix): 4,743
pIC50 (HCT15, large_intestine): 4,945
pIC50 (HCT116, large_intestine): 4,795
IC50 (769-P, read-out: IC50): 27.5 µM
IC50 (786-0, 786-O, read-out: IC50): 13.6 µM
IC50 (72 h, panel average, 72 h, read-out: average IC50 in the cancer cell line screen): 18.4 µM
IC50 (A 172, A-172, read-out: IC50): 20.3 µM
IC50 (A204, A-204, read-out: IC50): 22.6 µM
IC50 (A388, read-out: IC50): 16.8 µM
IC50 (A498, A-498, read-out: IC50): 24.3 µM
IC50 (A549, A-549, read-out: IC50): 23.8 µM
IC50 (A704, A704, kidney, read-out: pIC50 (converted)): 34 µM
IC50 (A704, A-704, read-out: IC50): > 100 µM
IC50 (A-375, A375, read-out: IC50): 17.2 µM
IC50 (A-427, A-427, read-out: IC50): 11.9 µM
IC50 (ACHN, read-out: IC50): 15.9 µM
IC50 (AN3-CA, AN3 CA, read-out: IC50): 11.4 µM
IC50 (ASPC1, AsPC-1, read-out: IC50): 25.3 µM
IC50 (AU565, AU-565, read-out: IC50): 14.6 µM
IC50 (BT-20, BT-20, read-out: IC50): 33.6 µM
IC50 (BT-549, BT-549, read-out: IC50): 15.2 µM
IC50 (BXPC-3, BxPC-3, read-out: IC50): 19.3 µM
IC50 (C-33-A, C33A, cervix, read-out: pIC50 (converted)): 1.74 µM
IC50 (C-33-A, C-33 A, read-out: IC50): 1.74 µM
IC50 (CAL-27, CAL 27, read-out: IC50): 15.7 µM
IC50 (CCRF-CEM, CCRFCEM, blood, read-out: pIC50 (converted)): 0.708 µM
IC50 (CCRF-CEM, read-out: IC50): 0.708 µM
IC50 (COLO 205, COLO 205, read-out: IC50): 22.3 µM
IC50 (COLO-829, COLO 829, read-out: IC50): 17.3 µM
IC50 (DLD-1, DLD1, large_intestine, read-out: pIC50 (converted)): 13.8 µM
IC50 (DLD-1, DLD-1, read-out: IC50): 13.8 µM
IC50 (DU-145, DU 145, read-out: IC50): 25.3 µM
IC50 (Daoy, read-out: IC50): 13.6 µM
IC50 (DoTc2-4510, DoTc2 4510, read-out: IC50): 18.1 µM
IC50 (FaDu, upper_aerodigestive_tract, read-out: pIC50 (converted)): 25.7 µM
IC50 (FaDu, read-out: IC50): 25.7 µM
IC50 (HCT-15, HCT-15, read-out: IC50): 11.4 µM
IC50 (HCT-116, HCT 116, read-out: IC50): 16 µM
IC50 (Hs-578T, Hs 578T, read-out: IC50): 14.7 µM
IC50 (J82, J82, read-out: IC50): 19.2 µM
IC50 (Jurkat E6.1, Jurkat E6.1, read-out: IC50): 0.569 µM
IC50 (K562, K-562, read-out: IC50): 15.3 µM
IC50 (KU812, KU812, read-out: IC50): 9.13 µM
IC50 (LNCaP, LNCaP FGC, read-out: IC50): 91.7 µM
IC50 (LS174T, LS 174T, read-out: IC50): 20.3 µM
IC50 (LoVo, read-out: IC50): 16.6 µM
IC50 (MCF7, MCF7, read-out: IC50): 14.7 µM
IC50 (MG-63, MG-63, read-out: IC50): 22.7 µM
IC50 (MIA PaCa-2, MIA PaCa-2, read-out: IC50): 13.1 µM
IC50 (MOLT-4, MOLT-4, read-out: IC50): 4.07 µM
IC50 (MeWo, read-out: IC50): 19.5 µM
IC50 (NCI-H82, NCI-H82, read-out: IC50): 4.84 µM
IC50 (NCI-H460, NCI-H460, read-out: IC50): 32.5 µM
IC50 (OVCAR-3, OVCAR-3, read-out: IC50): 13.7 µM
IC50 (PA1, ovary, read-out: pIC50 (converted)): 2.88 µM
IC50 (PA-1, PA-1, read-out: IC50): 2.88 µM
IC50 (RKO, read-out: IC50): 10.1 µM
IC50 (RPMI-7951, RPMI-7951, read-out: IC50): 14.1 µM
IC50 (RT-4, RT4, read-out: IC50): 33.4 µM
IC50 (SHP77, SHP-77, read-out: IC50): 13.8 µM
